Test results taken from publication PMC4920673, “Nitroimidazole carboxamides as antiparasitic agents targeting Giardia lamblia, Entamoeba histolytica and Trichomonas vaginalis” (European Journal of Medicinal Chemistry, 2016).
≈ marks a conversion by molar mass, not a printed value. Read-outs that look alike come from different tables or passages of the source.

Key:
[1] = Resazurin cytotoxicity assay, HepG2; type: cell-based, Human; settings: human, 24 h, highest concentration 100 μM, n = 3, read-out: CC50 Hep G2
Description: (§1) Human HEK293 and HepG2 cells were seeded at 3000 and 5000 cells per well in 384-well plates, respectively. Cells were cultured in Dulbecco's modified Eagle's medium with 10% FBS for 24 h at 37 °C, 5% CO2. A dilution series of compounds was added, with the highest concentration of 100 μM. […] After 24 h incubation with the compounds, 5 μM resazurin was added into each well and incubated at 37 °C for 2 h. As a negative control, 1% Triton X-100 was added into the culture media to lyse all of the cells. The fluorescence intensity was read using Polarstar Omega with excitation/emission 560/590 nm. Data were analysed with GraphPad Prism 6 software (La Jolla, California USA) to calculate CC50 values.

G. lamblia WB (MtzS) = assay: ATP-bioluminescence growth/survival EC50 assay, G. lamblia WB; settings: for EC50: Giardia duodenalis; for S.I (CC50/EC50): average cytotoxicity against HEK293 and HepG2 / G. lamblia WB activity
Description: (§2) Compounds were screened for antiparasitic activity using an ATP-bioluminescence based assay for cell growth and survival, [24]. […] Viable cell numbers were determined in triplicate using the CellTiter-Glo Luminescent Cell Viability Assay.

[2] = test system: C. difficile 630 (ATCC BAA-1382); assay: Broth microdilution MIC assay, C. difficile 630; type: cell-based, Clostridium difficile; settings: Clostridioides difficile, ATCCBAA1382; strain 630, MtzS; median of n = 4; read-out: MIC C. difficile 630
Description: Clostridium difficile strains (630, ATCC BAA-1382 and NAP1/027, ATCC BAA-1803) were maintained as previously described. The minimum inhibition concentration (MIC) was determined according to the CLSI Methods with modifications in broth and inoculum for C. difficile, [25], [26]. Briefly, compounds and control antibiotics were serially diluted two-fold in 96-well plates (Non-binding surface, Corning). […] C. difficile bacteria from BHIS(TA) agar plates were cultured anaerobically in BHIS at 37 °C overnight. […] An antibiotic standard, a positive growth control (no compound) and a sterility control (no bacteria) were included on each 96 well plate. Plates were covered and incubated at 37 °C for 24 h. MICs for each strain were determined as the lowest concentration without visible growth. […] Median MICs are reported with a range given when the median MIC was between two tested concentrations.

[3] = Resazurin cytotoxicity assay, HEK293; type: cell-based, Human; settings: human, 24 h, highest concentration 100 μM, n = 3, read-out: CC50 HEK 293
Description: as §1

E. histolytica HM1:IMSS = assay: ATP-bioluminescence growth/survival EC50 assay, E. histolytica; type: cell-based, Entamoeba histolytica; settings: Entamoeba histolytica
Description: as §2

[4] = test system: C. difficile NAP1/027 (ATCC BAA-1803); assay: Broth microdilution MIC assay, C. difficile NAP1/027; type: cell-based, Clostridium difficile; settings: Clostridioides difficile, ATCCBAA1803; strain NAP1/027
Description: Clostridium difficile strains (630, ATCC BAA-1382 and NAP1/027, ATCC BAA-1803) were maintained as previously described. The minimum inhibition concentration (MIC) was determined according to the CLSI Methods with modifications in broth and inoculum for C. difficile, [25], [26]. Briefly, compounds and control antibiotics were serially diluted two-fold in 96-well plates (Non-binding surface, Corning). The plates were placed in a Coy anaerobic chamber (5% H2, 10% CO2, 85% N2) overnight to reduce the medium. C. difficile bacteria from BHIS(TA) agar plates were cultured anaerobically in BHIS at 37 °C overnight. […]. Compound concentration ranged from 64 to 0.03 μg/mL. An antibiotic standard, a positive growth control (no compound) and a sterility control (no bacteria) were included on each 96 well plate. Plates were covered and incubated at 37 °C for 24 h. MICs for each strain were determined as the lowest concentration without visible growth. Variance between replicates was typically within one 2-fold dilution. Median MICs are reported with a range given when the median MIC was between two tested concentrations.

T. vaginalis F1623 = assay: ATP-bioluminescence growth/survival EC50 assay, T. vaginalis; type: cell-based, Trichomonas vaginalis; settings: Trichomonas vaginalis, read-out: EC50 T. vaginalis F1623, MtzS; minimum n = 3
Description: as §2

[5] = read-out: EC50 G. lamblia WB, MtzS strain WB, minimum n = 3
[6] = read-out: pEC50 ± SE G. lamblia WB, MtzS strain WB (converted)
[7] = read-out: EC50 E. histolytica HM1:IMSS
[8] = read-out: pEC50 ± SE E. histolytica HM1:IMSS (converted)

SMILES | CC50 at 24 h ([1]; HepG2 cells) [µM] | EC50 (G. lamblia WB (MtzS); [5]) [µM] | EC50 (G. lamblia WB (MtzS); [6]) [µM] | MIC [2] [µg/mL] | CC50 at 24 h ([3]; HEK293 cells) [µM] | EC50 (E. histolytica HM1:IMSS; [7]) [µM] | EC50 (E. histolytica HM1:IMSS; [8]) [µM] | MIC [4] [µg/mL] | S.I (CC50/EC50) (G. lamblia WB (MtzS)) | CC50 at 24 h [1] [µM] | CC50 at 24 h [3] [µM] | EC50 (T. vaginalis F1623) [µM]
Cc1ccc(CCn2cc([N+](=O)[O-])nc2C(N)=O)cc1 [Compound 13d, 1-(4-methylphenethyl)-4-nitro-1H-imidazole-2-carboxamide] | > 100 | > 50 | > 50.1 | > 64 | > 100 | > 50 | > 50.1 | > 64 |  |  |  | 
NC(=O)c1nc([N+](=O)[O-])cn1Cc1ccccn1 [Compound 13e, 4-nitro-1-(pyridin-2-ylmethyl)-1H-imidazole-2-carboxamide] | > 100 | 27 | 26.9 | > 64 | > 100 | > 50 | > 50.1 | > 64 | >3.7 |  |  | 
CNC(=O)c1nc([N+](=O)[O-])cn1Cc1ccc(OC(F)(F)F)cc1 [Compound 14a, N-methyl-4-nitro-1-(4-(trifluoromethoxy)benzyl)-1H-imidazole-2-carboxamide] |  | 3.4 | 3.39 |  |  | 30 | 30.2 | > 64 | >29 | > 100 | > 100 | 
CN(C)C(=O)c1nc([N+](=O)[O-])cn1Cc1ccc(OC(F)(F)F)cc1 [Compound 14b, N,N-dimethyl-4-nitro-1-(4-(trifluoromethoxy)benzyl)-1H-imidazole-2-carboxamide] |  | 2.7 | 2.69 | 64 (≈ 179 µM) |  | 19 | 19.1 | 64 (≈ 179 µM) | >37 | > 100 | > 100 | 
NNC(=O)c1nc([N+](=O)[O-])cn1Cc1ccc(OC(F)(F)F)cc1 [Compound 14e, 4-nitro-1-(4-(trifluoromethoxy)benzyl)-1H-imidazole-2-carbohydrazide] |  | 7.5 | 7.59 | > 64 |  | 45 | 44.7 | > 64 | >13 | > 100 | > 100 | 
O=C(NCc1ccc(F)cc1)c1ncc[nH]1 [Compound 17, N-(4-fluorobenzyl)-1H-imidazole-2-carboxamide] |  | > 50 |  | > 64 |  | > 50 |  |  |  |  |  | > 20
NC(=O)c1nccn1Cc1ccc(OC(F)(F)F)cc1 [Compound 18, 1-(4-(trifluoromethoxy)benzyl)-1H-imidazole-2-carboxamide] |  | > 50 |  | > 64 |  | > 50 |  |  |  |  |  | 
Nc1c[nH]c(C(=O)NCc2ccc(F)cc2)n1 [Compound 20, 4-amino-N-(4-fluorobenzyl)-1H-imidazole-2-carboxamide] |  | > 50 |  | > 64 |  | > 50 |  |  |  |  |  | > 20
